Assay results as given in patent US20240336658A1, “CYCLIC PEPTIDE AND PREPARATION METHOD AND USE THEREOF” (HANGZHOU HUIBO SCIENCE AND TECHNOLOGY CO., LTD, priority 2021, published 2024).

Assays:
[1] = Solubility of prepared cyclic peptide; type: physicochemical
[2] = system: full-thickness skin defect wound surfaces; experiment: Effects of cyclic peptide Hst1 on wound repair in mice (Example 10): healing rate, HE/Masson histology, CD31/VEGF immunohistochemistry; type: in vivo, C57 BL/6 mice; conditions: day 10, Masson staining; 0.1 μM Click-Histatin1, 0.1 μM Sortase A-cyclic histatin1, 10 μM Histatin1
Experimental: This example adopted the propargylglycine-Hst1 cyclic peptide (Click-Histatin1) provided in Example 1, a cyclized Hst1 (Sortase A-cyclic histatin1) prepared by the Sortase A enzymatic method provided in Example 4, and a linear peptide Hst1 (Histatin1) to conduct animal experiments to observe the effect of the propargylglycine-Hst1 on the healing rates of the wound surfaces of mice. The concentration of the linear peptide Hst1 was 10 μM, the concentration of the propargylglycine-Hst1 cyclic peptide was 0.1 μM, and the concentration of the cyclized Hst1 prepared by the Sortase A enzymatic method was each 0.1 μM. 12 healthy male special pathogen-free grade C57 BL/6 mice (purchased from Guangdong Experimental Animal Center) of 6-8 weeks old and weighing 22-28 g. They were intraperitoneally injected with 5 ml/kg of 1% pentobarbital sodium for anesthesia. After the mice had no corneal reflex, the hair on their backs was carefully removed and disinfected with alcohol. […] full-thickness skin defect wound surfaces were prepared on the back of each mouse by using a circular skin punch. The 12 mice were divided into a Control (blank) group with 3 mice, a 10 μM linear peptide Hst1 (Histatin1) group with 3 mice, a 0.1 μM propynylglycine-Hst1 cyclic peptide (Click-Histatin1) group with 3 mice, and a 0.1 μM cyclized Hst1 prepared by a Sortase A enzymatic method (Sortase A-cyclic histatin1) group with 3 mice, according to a random number table method. Each wound surface was added with 0.5 ml of four drugs respectively, and administration was conducted every day until the wound surfaces of the experimental groups healed. Photographs were taken on days 0, 3, 5, 7, and 10 after surgery, and wound tissues were sampled on day 10 for subsequent pathological staining. On days 0, 3, 5, 7, and 10 after injury, the general condition of wound healing of the mice was observed and photographed with a digital camera (see FIG. 4), and the wound healing rate was calculated (see FIG. 5). Wound healing rate=(wound area immediately after injury−unhealed wound area at each time point)[…]wound area immediately after injury×100%. The wound specimens were fixed in 4% paraformaldehyde for 48 hours, rinsed with tap water for 10 minutes, dehydrated with graded ethanol, permeabilized with xylene, and embedded in paraffin to prepare 4 μm thick sections. Some sections were taken for HE staining and Masson staining, and observed for the thickness of the granulation tissue, the length of the dermal gap, and the newly grown collagen of the wound surface under an inverted fluorescence microscope at 40×, 100×, 200×, and 400× respectively (see FIGS. 6 and 7). 5 sections were taken from each mouse, and 5 fields of view were selected for each section. Data analysis was performed using the software Image-pro Plus. […] It was added with a rabbit anti-mouse CD31 primary antibody (with a dilution ratio of 1:300) and a mouse anti-VEGF (with a dilution ratio of 1:100), incubated overnight at 4° C., and washed with PBS. […] It was subjected to DAB development, hematoxylin counterstaining. gradient ethanol dehydration, xylene permeabilization, and resin blocking. 5 sections were taken from each mouse, and 5 fields of view were selected for each section. The sections were observed under a 400× inverted fluorescence microscope, and analyzed for the number of CD31-positive blood vessels (see FIG. 8) and VEGF expression amounts (see FIG. 9, shown in brown) by using Image-pro Plus software. The measurement data were expressed by M±SD, and the data were analyzed by one-way analysis of variance (ANOVA) and an independent samples T-test with SPSS 20.0 software to detect whether the differences among the groups were statistically significant, and a Bonferroni test was used for pairwise comparison. *p<0.05. **p<0.01. ***p<0.001 meant the difference was statistically significant, and p>0.05 was not statistically significant.

fibroblasts (NIH/3T3) = experiment: Scratching experiment, Hst1 cyclic peptides (Examples 11 and 12); type: cell-based; conditions: dosage needed to achieve the same pharmaceutical effect in the scratch experiment
Experimental: At the same time, fibroblasts (NIH/3T3; GNM 6; Chinese Academy of Sciences, China) were plated into a 6-well plate at a number of 2×10^6/well and cultured to a density of 70-80%. The cells were starved for 8-12 hours before the experiment. Mitomycin C (Sigma Aldrich, USA) was added into the culture medium to make its concentration in the culture medium be 15 μg/ml, and the culture medium was changed after 3 hours of treatment. Scratching was conducted with a 200 μl pipette tip perpendicular to the bottom of the well-plate with the same force, and the well-plate was rinsed with PBS twice after scratching. Each well was added with an appropriate amount of a DEME medium (10% FBS, 1% double antibody), and except for the blank control group, each well was added with 10 μM of the linear Hst1, 0.01 μM of the propynylglycine-Hst1 cyclic peptide, 0.1 μM of the propynylglycine-Hst1 cyclic peptide and 1 μM of the propynylglycine-Hst1 cyclic peptide as experimental groups. At 0 hour, the cells in each group were photographed by using a microscope (Olympus, Japan). […] The scratched area of each group was calculated by using imageJ (Rawak Software, Inc. Germany) software, and the scratch area at 0 hour was an initial scratch area. The scratch healing rate was calculated as follows: […]

Sortase A-cyclic histatin1: cyclized Hst1 prepared by the literature Sortase A enzymatic method (Bolscher, FASEB Journal) (DSHEKRHHGYRRKFHEKHHSHREFPFYGDYGSNYLYDN; Histatin-1 cyclized via sortase A; UniProt P15515 20-57, looked up) [reference compound]
solubility [1]: poor solubility | expression amount of collagen at the wound surfaces [2]: significantly higher than that of the Control group | Dosage of agents required for scratch test (fibroblasts (NIH/3T3)): 0.12 µM
